In patent US4382089A, “Antibacterial amide compounds, compositions thereof and methods of using them” (Warner-Lambert Company, priority 1982, dated 1983):

Experiments:
Test in all cases: Antibacterial activity in vitro, Minimal Inhibitory Concentration
Assay type in all cases: cell-based
E. Coli Brig = test system: E. Coli Brig
Description: (§1) The compounds of the invention are new chemical compounds that are used as pharmacological agents and especially as broad spectrum antibacterial agents. They are active in vitro against strains of both gram-positive and gram-negative bacteria. The activity of the compounds is illustrated by the results shown in the table for certain of the preferred compounds.

E. Coli Vogel = test system: E. Coli Vogel
Description: as §1

Entero C. IMM-11 = test system: Entero C. IMM-11
Description: as §1

Klebs. Pneu. MGH-2 = test system: Klebs. Pneu. MGH-2
Description: as §1

Prot. Vulg. 1810 = test system: Prot. Vulg. 1810
Description: as §1

Pseudo. Aeru 28 = test system: Pseudo. Aeru 28
Description: as §1

Pseudo. Aeru BRK = test system: Pseudo. Aeru BRK
Description: as §1

Pseudo. Aeru UI-18 = test system: Pseudo. Aeru UI-18
Description: as §1

Serr. Mar. IMM-16 = test system: Serr. Mar. IMM-16
Description: as §1

Staph Aureus UC-76 = test system: Staph Aureus UC-76
Description: as §1

## N-[(-[[2-(Acetylamino)-1-oxopropl]amino]-1,4-dihydro-4-oxo-3-quinolinylcarbonyl]amoxicillin
E. Coli Brig
  Minimal Inhibitory Concentration: 12.5 µg/mL
E. Coli Vogel
  Minimal Inhibitory Concentration: 3.1 µg/mL
Entero C. IMM-11
  Minimal Inhibitory Concentration: 12.5 µg/mL
Klebs. Pneu. MGH-2
  Minimal Inhibitory Concentration: 12.5 µg/mL
Prot. Vulg. 1810
  Minimal Inhibitory Concentration: 3.1 µg/mL
Pseudo. Aeru 28
  Minimal Inhibitory Concentration: 0.8 µg/mL
Pseudo. Aeru BRK
  Minimal Inhibitory Concentration: 3.1 µg/mL
Pseudo. Aeru UI-18
  Minimal Inhibitory Concentration: .1 µg/mL
Serr. Mar. IMM-16
  Minimal Inhibitory Concentration: 12.5 µg/mL
Staph Aureus UC-76
  Minimal Inhibitory Concentration: 1.6 µg/mL
